Like-named read-outs stand apart in the source and are kept apart here.
What was measured:
[1] = system: Human Breast Adenocarcinoma Cell Line MDA-MB-231; assay: Drug cytotoxicity testing (viable cell count, trypan blue exclusion, cell growth inhibition); assay type: cell-based; settings: for inhibition at 0.1 µM / inhibition at 0.01 µM / inhibition at 0.001 µM: Homo sapiens; for cell growth inhibition in (A) compared to compound in B / cell growth inhibition reached on increase of the concentration, in (B): sodium salt, range 10^-9 to 10^-7 M; for cell growth inhibition reached on increase of the concentration, in (B): dilution in normal saline (B)
Method: MDA-MB-231 cells were propagated in MEM culture medium with 2 mM L-glutamine, 10% heat-inactivated fetal bovine serum (FBS) and antibiotics. DU 145 cells were cultured in MEM culture medium containing 2 mM L-glutamine, 1 mM sodium pyruvate, 10% FBS and antibiotics. SKOV-3 cells were cultured in McCoy's 5A culture medium, supplemented with 1,5 mM L-glutamine, 10% FBS and antibiotics. A549 cells were cultured in Ham's F-12 culture medium with 1 mM L-glutamine, 10% FBS and antibiotics. All media and supplements were purchased from Sigma-Aldrich (St.Louis, MO, USA). Cell propagation of all lines was carried out in Falcon™ 25 cm^2 cultivation flasks (Becton Dickinson Labware).
Drug cytotoxicity testing was carried out with using Falcon™ 96-well cultivation plates for adherent cells (Becton Dickinson Labware). These plates were seeded by cells either at 12 × 10^3 MDA-MB-231 cells/well, or at 12 × 10^3 DU 145 cells/well, or at 14 × 10^3 SKOV-3 cells/well, or at 10 × 10^3 A549 cells/well in a volume of 200 µL/well.
The cell cultures in cultivation plates were allowed to adhere for 24 hour of incubation. On day 1 after cell seeding, 2 µL solutions of the drugs to be tested in medium with 5% FBS was added to the cultures. In the control cultures, 2 µL of medium with 5% FBS was added as solvent control. The cells were incubated for 2 consecutive days. At the end of the incubation period adherent cells were detached by trypsinization and the number of viable cells was counted using trypan blue exclusion test and a hemocytometer. All data were derived from an average of three determinations each in six replicates. The results were expressed as mean cell number ± SE and the differences between control and test series evaluated by means of Student's t-test. The drug cytotoxicity was evaluated based on the extent of cell growth inhibition. The cell growth inhibition of the tested drugs was calculated as follows: Cell growth inhibition,% = (Control-TestSeries)/(Control) × 100 [formula]
In the case of comparative evaluation of cytotoxicity of the inventive compounds themselves and the formulation related to consecutive dilutions of their initial solutions before adding to the cultures, 2 µL solutions of the drugs to be tested in medium with 5% FBS, in normal saline and in saline with 2,3 mM CaCl2 were added to the cultures. In control cultures, 2 µL of medium with 5% FBS, normal saline and saline with 2,3 mM CaCl2 were added as solvent controls (negative controls). […] Therefore an average of negative controls was calculated. […] Therefore an average of positive controls was calculated (for each antibiotic).

[2] = rat, in vivo, ip; for mortality: 100 mg/kg
Method: A single dose i.p. toxicity study in rats was carried out. […] The minimal lethal dose is thus above 100 mg/kg body weight for these compounds.

[3] = MDA-MB-231, 48 h, compound alone, final concentration 10^-7 mol/L, working solutions in MEM with 5% FBS, two days, read-out: cell growth inhibition
[4] = MDA-MB-231, 48 h, compound alone, final concentration 10^-8 mol/L, working solutions in MEM with 5% FBS, two days, read-out: cell growth inhibition
[5] = MDA-MB-231, 48 h, compound alone, final concentration 10^-9 mol/L, working solutions in MEM with 5% FBS, two days, read-out: cell growth inhibition
[6] = MDA-MB-231, compound alone 10^-7 mol/L, in A (saline with […] CaCl2), read-out: cell growth inhibition
[7] = MDA-MB-231, compound alone 10^-7 mol/L, in B (normal saline), read-out: cell growth inhibition
[8] = MDA-MB-231, compound alone 10^-7 mol/L, read-out: Cell growth inhibition in A compared to that in B was increased by
[9] = MDA-MB-231, compound alone 10^-8 mol/L, in A (saline with […] CaCl2), read-out: cell growth inhibition
[10] = MDA-MB-231, compound alone 10^-8 mol/L, in B (normal saline), read-out: cell growth inhibition
[11] = MDA-MB-231, compound alone 10^-8 mol/L, read-out: Cell growth inhibition in A compared to that in B was increased by
[12] = MDA-MB-231, compound alone 10^-9 mol/L, in A (saline with […] CaCl2), read-out: cell growth inhibition
[13] = MDA-MB-231, compound alone 10^-9 mol/L, in B (normal saline), read-out: cell growth inhibition
[14] = MDA-MB-231, compound alone 10^-9 mol/L, read-out: Cell growth inhibition in A compared to that in B was increased by
[15] = compound alone 10^-7 mol/L, in B (normal saline)
[16] = compound alone 10^-8 mol/L, in B (normal saline)
[17] = compound alone 10^-9 mol/L, in B (normal saline)
[18] = compound alone, final concentration 10^-7 mol/L, working solutions in MEM with 5% FBS, two days
[19] = compound alone, final concentration 10^-8 mol/L, working solutions in MEM with 5% FBS, two days
[20] = compound alone, final concentration 10^-9 mol/L, working solutions in MEM with 5% FBS, two days

Structure (SMILES) | inhibition at 0.1 µM [1, 3] | inhibition at 0.01 µM [1, 4] | inhibition at 0.001 µM [1, 5] | inhibition at 0.1 µM [1, 7] | inhibition at 0.1 µM [1, 8] | inhibition at 0.01 µM [1, 9] | inhibition at 0.01 µM [1, 10] | inhibition at 0.01 µM [1, 11] | inhibition at 0.001 µM [1, 12] | inhibition at 0.001 µM [1, 13] | inhibition at 0.001 µM [1, 14] | number of viable cells [1, 15] | number of viable cells [1, 16] | number of viable cells [1, 17] | number of viable cells [1, 18] | number of viable cells [1, 19] | number of viable cells [1, 20] | cell growth inhibition in (A) compared to compound in B [1] | minimal lethal dose [2] | mortality [2] | also measured
CC1=C(/C=C/C(C)=C/C=C/C(C)=C/C(=O)N[C@@H](CS(=O)(=O)O)C(=O)N(C)C)C(C)(C)CCC1 [compound I-1h, N-(all-trans-retinoyl)-L-cysteic acid dimethylamide] | 46.4% | 39.6% | 32% | 26% | 21.3% | 34.2% | 17.4% | 20.4% | 26.7% | 7% | 21.1% | 41.3 ± 0.99 × 10^3 | 46.1 ± 2.65 × 10^3 | 51.9 ± 3.46 × 10^3 | 30.3 ± 1.55 × 10^3 | 34.1 ± 1.89 × 10^3 | 38.4 ± 2.11 × 10^3 | ~21% | above 100 mg/kg body weight | did not produce mortality | inhibition at 0.1 µM [1, 6]: 41.8%
COC(=O)[C@H](CCS(=O)(=O)O)NC(=O)/C=C(C)/C=C/C=C(C)/C=C/C1=C(C)CCCC1(C)C [compound I-3a, N-(all-trans-retinoyl)-L-homocysteic acid methyl ester] | 49% | 38.2% | 29.2% |  |  |  |  |  |  |  |  |  |  |  | 28.8 ± 1.15 × 10^3 | 34.9 ± 1.64 × 10^3 |  |  | above 100 mg/kg body weight | did not produce mortality | 
CC1=C(/C=C/C(C)=C/C=C/C(C)=C/C(=O)N[C@@H](CCS(=O)(=O)O)C(N)=O)C(C)(C)CCC1 [compound I-3f, N-(all-trans-retinoyl)-L-homocysteic acid amide] | 55.2% | 48.7% | 41.4% | 40.8% | 21.6% | 46.8% | 32.1% | 21.5% | 39% | 21.8% | 21.9% | 32.8 ± 0.99 × 10^3 | 37.6 ± 1.52 × 10^3 | 43.3 ± 2.88 × 10^3 | 25.3 ± 0.76 × 10^3 | 29.0 ± 1.32 × 10^3 | 33.1 ± 1.90 × 10^3 | ~22% | above 100 mg/kg body weight | did not produce mortality | inhibition at 0.1 µM [1, 6]: 53.6%; cell growth inhibition reached on increase of the concentration, in (B) [1]: ~41%
CC1=C(/C=C/C(C)=C/C=C/C(C)=C\C(=O)N[C@@H](CS(=O)(=O)O)C(N)=O)C(C)(C)CCC1 [compound II-1f, N-(13-cis-retinoyl)-L-cysteic acid amide] | 53.2% | 49.8% | 45.1% | 45.8% | 15.4% | 47.4% | 37.3% | 16.1% | 40.1% | 27.2% | 17.7% | 31.1 ± 0.96 × 10^3 | 36.0 ± 1.28 × 10^3 | 41.8 ± 1.46 × 10^3 | 26.6 ± 1.83 × 10^3 | 28.5 ± 2.13 × 10^3 | 31.2 ± 2.42 × 10^3 | ~15% | above 100 mg/kg body weight | did not produce mortality | cell growth inhibition reached on increase of the concentration, in (B) [1]: ~46%
CCOC(=O)[C@H](CCS(=O)(=O)O)NC(=O)\C=C(C)/C=C/C=C(C)/C=C/C1=C(C)CCCC1(C)C [compound II-3b, N-(13-cis-retinoyl)-L-homocysteic acid ethyl ester] | 62.1% | 55.4% | 47.8% | 44.4% | 28.9% | 53.6% | 35.7% | 27.8% | 46% | 25.3% | 27.8% | 30.8 ± 1.60 × 10^3 | 35.6 ± 1.97 × 10^3 | 41.4 ± 2.15 × 10^3 | 21.4 ± 0.88 × 10^3 | 25.2 ± 1.27 × 10^3 | 29.5 ± 1.21 × 10^3 | ~29% | above 100 mg/kg body weight | did not produce mortality | inhibition at 0.1 µM [1, 6]: 60.5%; cell growth inhibition reached on increase of the concentration, in (B) [1]: ~44%

— EP1534672B1, “RETINOL DERIVATIVES, THEIR USE IN THE TREATMENT OF CANCER AND FOR POTENTIATING THE EFFICACY OF OTHER CYTOTOXIC AGENTS” (priority 2002, dated 2004)
